Results taken from US11911469B2, “Combination of ACAT1 inhibitor and checkpoint antibody for treating cancer” (Shanghai Institutes for Biological Sciences, Chinese …, priority 2016, dated 2024).

Key:
CD8+ T cells = assay: Cytokine and cytolytic granule production of stimulated CD8+ T cells; assay type: cell-based, mouse; details: pretreated cells stimulated with 5 μg ml−1 plate-bound anti-CD3/CD28; versus vehicle (DMSO)
Experimental: Peripheral T cells were isolated from mouse spleen and draining lymph nodes by a CD8^+ or CD4^+ T cell negative selection kit (Stem cell). To analyse the tumour-infiltrating T cells, tumours were first digested by collagenase IV (sigma), and tumour-infiltrating leukocytes were isolated by 40-70% percoll (GE) gradient centrifugation. To measure the effector function of CD8^+ T cells, the isolated cells were first stimulated with 1 μM ionomycin and 50 ng/ml PMA for 4 hours in the presence of 5 μg/ml BFA, and then stained with PERCP-α-CD8a. Next, cells were fixed with 4% PFA and stained with FITC-α-Granzyme B, APC-α-IFNγ and PE-α-TNFα. In general, to gate the cytokine or granule producing cells, T cells without stimulation or stained with isotype control antibody were used as negative controls. This gating strategy is applicable for most of the flow cytometric analyses. To detect the MDSCs (myeloid-derived suppressor cells) in the tumour, the percoll isolated leukocyte were stained with α-CD45, α-CD11b and α-Ly6G (Gr1), the CD45^+ population was gated, after which the MDSC population (CD11b^+ Gr1^+) in CD45^+ were gated.
(§1) CD8^+ T cells were pretreated with vehicle (dimethylsulfoxide, DMSO), CP-113,818 or K604. Then the cells were stimulated with 5 μg ml^−1 plate-bound anti-CD3/CD28, and cytokine and cytolytic granule production was studied. Cytotoxicity of OT-I CTLs pretreated with CP-113,818 or K604 or vehicle was also studied.

OT-I CTLs = assay: Cytotoxicity of OT-I CTLs against antigen-pulsed EL-4 cells (LDH assay); assay type: cell-based, mouse; details: for cytotoxicity of CD8+ T cells: OT-I CTLs pretreated with compound or vehicle
Experimental: To generate mature Cytotoxic T lymphocytes (CTLs), splenocytes isolated from Acat1^CKO-OT-I mice or WT OT-I mice were stimulated with OVA257-264 (N4) for 3 days in the presence of 10 ng/ml IL-2. Cells were centrifuged and cultured in fresh medium containing 10 ng/ml IL-2 for 2 more days, after which most of the cells in the culture were CTLs. To measure CD8^+ T-cell cytotoxicity, EL-4 cells were pulsed with 2 nM antigenic peptide (N4, A2, T4, G4, R4 or Catnb) for 30 minutes. After washing EL-4 cells and CTLs three times with PBS, we mixed CTLs and antigen-pulsed EL-4 cells (1×10^5) in the killing medium (phenol free-RPMI 1640, 2% FBS), at the ratio of 1:1, 1:2 and 1:5, respectively. After 4 hours, the cytotoxic efficiency was measured by quantifying the release of endogenous lactate dehydrogenase (LDH) from EL-4 cells using a CytoTox 96 Non-Radioactive Cytotoxicity kit (Promega).
as §1
(§2) To study ACAT1 inhibitors in cancer immunotherapies in mice, melanoma-bearing mice were treated with a potent ACAT-1 inhibitor, avasimibe (Ava), or DMSO control, and tumour size and survival were studied. A combined therapy (avasimibe and anti-PD-1) or monotherapies (avasimibe or anti-PD-1) were also studied and compared in treating melanoma. In a lung cancer model, Lewis lung carcinoma-bearing mice were treated with avasimibe or DMSO control, and tumour multiplicity and survival were studied. Cytokine productions of stimulated human (h) CD8^+ T cells pretreated with avasimibe, CP-113,818, or DMSO. CTL cytotoxicity after avasimibe treatment was measured by the LDH assay. OT-I CTLs were pretreated with avasimibe or vehicle for 6 h and then incubated with EL-4 cells pulsed with OVA257-264 peptide for 4 h.

[1] = doses at least up to 750 mg four times daily (i.e., 3000 mg/day); cited from earlier work
human CD8+ T cells = assay: Human CD8+ T-cell cytokine production; assay type: cell-based; details: PBMCs pretreated 12 hours, stimulated with plate-bound α-CD3 and α-CD28 (5 μg/ml each) for 24 hours; versus DMSO
Experimental: Human peripheral blood mononuclear cells (PBMCs) from healthy donators were stimulated with 5 μg/ml PHA (Sigma) for 2 days and then rested for 1 day. Cells were pretreated with vehicle (DMSO), CP113, 818 or avasimibe for 12 hours and then stimulated with plate-bound α-CD3 (5 μg/ml) and α-CD28 (5 μg/ml) antibodies for 24 hours. Intracellular staining and flow cytometry were used to assess cytokines production of CD8^+ T cells. […] A combined therapy (avasimibe and anti-PD-1) or monotherapies (avasimibe or anti-PD-1) were also studied and compared in treating melanoma. In a lung cancer model, Lewis lung carcinoma-bearing mice were treated with avasimibe or DMSO control, and tumour multiplicity and survival were studied. […] CTL cytotoxicity after avasimibe treatment was measured by the LDH assay. OT-I CTLs were pretreated with avasimibe or vehicle for 6 h and then incubated with EL-4 cells pulsed with OVA257-264 peptide for 4 h.

B16F10 cells = assay: Skin melanoma mouse model, avasimibe therapy; assay type: in vivo; details: melanoma-bearing mice; avasimibe 15 mg/kg intraperitoneally every 2 days from Day 10; versus DMSO control
Experimental: B16F10 cells were washed three times with PBS, filtered by a 40 μm strainer. […] From Day 10, tumour size was measured every 2 days, and animal survival rate was recorded every day. Tumour size was calculated as length×width. Mice with tumour size larger than 20 mm at the longest axis were euthanized for ethical consideration. To analyse effector function of tumour-infiltrating T cells, mice were euthanized on Day 16. In the avasimibe therapy, on Day 10 mice bearing tumour of similar size were randomly divided into two groups. From Day 10, avasimibe was injected intraperitoneally to the mice at the dose of 15 mg/kg every 2 days.
as §2, with “OT-I CTLs were pretreated with avasimibe or vehicle for 6 h and then incubated with EL-4 cells pulsed with OVA257-264 peptide for 4 h.” left out

[2] = system: Lewis lung carcinoma (LLC); assay: Lewis lung carcinoma (LLC) model, avasimibe therapy; assay type: in vivo, mice; details: avasimibe 15 mg/kg intraperitoneally every 3 days, Day 10 to Day 35; versus DMSO control
Experimental: The LLC cells were washed twice with PBS and filtered by a 40 μm strainer. After which, the LLC cells (2×10^6) were intravenously injected into WT or Acat1^CKO mice at the age of 8-10 weeks. To detect the tumour multiplicity in the lung, the mice were euthanized at Day 35 post tumour inoculation and tumour numbers in the lung were counted. In the avasimibe therapy, on Day 10 mice were randomly divided into two groups. From Day 10 to Day 35 post tumour inoculation, avasimibe was injected intraperitoneally to the mice at the dose of 15 mg/kg every 3 days.
as §2

Compound	cytolytic granule and cytokine productions of CD8+ T cells (CD8+ T cells)	cytotoxicity of CD8+ T cells (OT-I CTLs)	also measured
CCCCCCCC[C@H](SCCCCCC)C(=O)Nc1c(SC)cc(C)nc1SC [CP-113,818, (S)-N-(2,4-Bis(methylthio)-6-methylpyridin-3-yl)-2-(hexylthio)decanoic acid amide]	augmented	augmented	–
CSc1cc(C)nc(SC)c1NC(=O)CN1CCN(CCSc2nc3ccccc3[nH]2)CC1 [K604, 2-[4-[2-(benzimidazol-2-ylthio)ethyl]piperazin-1yl]-N-[2,4-bis(methylthio)-6-methyl-3-pyridyl]acetamide]	augmented	augmented	–
CC[C@H](C)C(=O)O[C@H]1C[C@@H](C)C=C2C=C[C@H](C)[C@H](CC[C@@H]3C[C@@H](O)CC(=O)O3)[C@H]21 [Lovastatin]	significantly decreased	–	–
CCN(CC)CCO[C@H]1CC[C@@]2(C)C(=CC[C@@H]3[C@@H]2CC[C@]2(C)C(=O)CC[C@@H]32)C1 [U18666A]	significantly decreased	–	–
CC(C)c1cc(C(C)C)c(CC(=O)NS(=O)(=O)Oc2c(C(C)C)cccc2C(C)C)c(C(C)C)c1 [avasimibe, [2,6-di(propan-2-yl)phenyl] N-[2-[2,4,6-tri(propan-2-yl)phenyl]acetyl]sulfamate]	–	–	tolerability in adult human subjects [1]: well tolerated; effector function of mouse CD8+ T cells ex vivo (CTL cytotoxicity, LDH assay) (OT-I CTLs; OT-I CTLs pretreated for 6 h, then incubated with OVA257-264 pulsed EL-4 cells for 4 h): enhance; cytokine production of human CD8+ T cells (human CD8+ T cells): enhanced; survival time (B16F10 cells): prolonged; tumour growth (B16F10 cells): inhibited; antitumor effect in Lewis lung carcinoma (tumour multiplicity and survival) [2]: good antitumor effect
